In publication PMC3248958 (Bioorganic & medicinal chemistry, 2011):

tested on: quinone reductase 1 (QR1); test: Quinone reductase 1; assay type: cell-based, mouse; settings: Hepa 1c1c7 cells; determined for compounds with induction ratios > 2

| SMILES | QR1 Assay CD (concentration that doubles the activity) [µM] |
| --- | --- |
| N#Cc1ccc(-c2nsc(-c3ccc(C#N)cc3)n2)cc1 [Compound 3gg, 4,4′-(1,2,4-Thiadiazole-3,5-diyl)dibenzonitrile] | > 50 |
| c1cc(-c2nsc(-c3ccncc3)n2)ccn1 [Compound 3c] | > 50 |
| N#Cc1cccc(-c2nsc(-c3cccc(C#N)c3)n2)c1 [Compound 3hh, 3,3′-(1,2,4-Thiadiazole-3,5-diyl)dibenzonitrile] | > 50 |
| Ic1ccc(-c2nsc(-c3ccc(I)cc3)n2)cc1 [Compound 3l, 3,5-Bis(4-iodophenyl)-1,2,4-thiadiazole] | > 50 |
| Cc1ccc(-c2nsc(-c3ccc(C)cc3Br)n2)c(Br)c1 [Compound 3dd, 3,5-Bis(2-bromo-4-methylphenyl)-1,2,4-thiadiazole] | > 50 |
| Cc1ccc(-c2nsc(-c3ccc(C)cc3)n2)cc1 [Compound 3x, 3,5-Di-p-tolyl-1,2,4-thiadiazole] | > 50 |
| Oc1ccc(CCc2cc(O)cc(O)c2)cc1 [dihydroresveratrol, reference compound] | > 50 |
| O=[N+]([O-])c1ccc(-c2nsc(-c3ccc([N+](=O)[O-])cc3)n2)cc1 [Compound 3ff] | > 50 |
| CCCCc1ccc(-c2nsc(-c3ccc(CCCC)cc3)n2)cc1 [Compound 3z, 3,5-Bis(4-butylphenyl)-1,2,4-thiadiazole] | > 50 |
| Nc1ccc(-c2nsc(-c3ccc(N)cc3)n2)cc1 [Compound 3ll, 3,5-Bis(4-aminophenyl)-1,2,4-thiadiazole] | > 50 |
| Clc1ccc(-c2nsc(-c3ccc(Cl)c(Cl)c3)n2)cc1Cl [Compound 3v, 3,5-Bis(3,4-dichlorophenyl)-1,2,4-thiadiazole] | > 50 |
| COc1ccc(-c2nsc(-c3ccc(OC)cc3)n2)cc1 [Compound 3g] | > 50 |
| Oc1ccc(-c2nsc(-c3ccc(O)cc3)n2)cc1 [Compound 3jj] | > 50 |

same assay, conditions: Hepa 1c1c7 cells; positive control

| SMILES | QR1 Assay CD of positive control [M] |
| --- | --- |
| O=c1cc(-c2ccc(Br)cc2)oc2ccccc12 [4'-Bromoflavone, reference compound] | 0.01 |

biological target: T1, Human Aromatase (Homo sapiens, UniProt P11511); test: Aromatase assay; assay type: biochemical; settings: not given
T1 sequence (P11511 1-503): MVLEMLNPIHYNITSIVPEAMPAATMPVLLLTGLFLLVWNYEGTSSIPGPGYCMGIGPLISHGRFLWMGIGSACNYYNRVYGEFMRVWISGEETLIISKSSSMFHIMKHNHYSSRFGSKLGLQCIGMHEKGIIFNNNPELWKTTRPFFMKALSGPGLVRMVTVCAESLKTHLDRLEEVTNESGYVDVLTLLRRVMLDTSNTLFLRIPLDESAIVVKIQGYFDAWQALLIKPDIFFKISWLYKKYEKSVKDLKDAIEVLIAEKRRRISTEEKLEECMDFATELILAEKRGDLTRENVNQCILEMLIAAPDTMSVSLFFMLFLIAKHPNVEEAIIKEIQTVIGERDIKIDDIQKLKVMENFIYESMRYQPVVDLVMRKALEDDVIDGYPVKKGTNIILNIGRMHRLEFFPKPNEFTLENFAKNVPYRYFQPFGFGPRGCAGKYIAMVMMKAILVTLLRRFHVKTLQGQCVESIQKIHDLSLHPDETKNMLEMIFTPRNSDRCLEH

| SMILES | times higher aromatase inhibitory activity than trans-resveratrol | times more potent than the lead compound 3a as an aromatase inhibitor |
| --- | --- | --- |
| c1cncc(-c2nsc(-c3cccnc3)n2)c1 [Compound 3b] | 30-125 times | greater than 250 times |

same assay, conditions: relative to trans-resveratrol

| SMILES | times higher aromatase inhibitory activity than trans-resveratrol |
| --- | --- |
| c1cc(-c2nsc(-c3ccncc3)n2)ccn1 [Compound 3c] | 30-125 times |

tested on: not given; test: not given; settings: tested at 400 μM of each compound

| SMILES | DPPH assay % inhibition [%] |
| --- | --- |
| c1cncc(-c2nsc(-c3cccnc3)n2)c1 [Compound 3b] | -16.1±1.1 |
| c1cc(-c2nsc(-c3ccncc3)n2)ccn1 [Compound 3c] | -35.6±0.4 |
